{"source": "patent US20150216779A1", "about": "“COMPOSITIONS FOR TARGETED ANTI-AGING THERAPY” (THE TEXAS A&M UNIVERSITY SYSTEM, priority 2012, published 2015)", "key": {"[1]": {"assay": "CoQ10 storage stability in delivery system at 30° C., HPLC", "type": "physicochemical", "details": "8 weeks at 30° C.; dispersed in matrix of heat-stabilized lactoferrin alone and in combination with branched-chain amino acids", "description": "A delivery system containing the anti-aging agent CoQ10 is prepared as follows: A. Encapsulated-1 (CoQ10). Primary Emulsion. […] This mixture was coarsely homogenized for 3 min using a hand blender. Secondary Emulsion.\nThe primary and secondary emulsions were blended at 1:1 ratio. The final emulsion system contained 0.5% Menhaden oil/Smart Blend Omega oil, 0.1% heat-stabilized lactoferrin, 0.1% CoQ10 and 0.1% high-methoxyl pectin (w/w). The zinc ion concentration after dilution became 2.4 mg/100 ml. This delivery system for CoQ10 was homogenized (72° C., 22.5 MPa), followed by pasteurization (72° C., 120 s). B. Encapsulated-2 (CoQ10). Primary Emulsion. […] This mixture was coarsely homogenized for 3 min using a hand blender. Secondary Emulsion. […] The primary and secondary emulsions were blended at 1:1 ratio. The final emulsion system contained 0.5% Menhaden oil/Smart Blend Omega oil, 0.1% heat-stabilized lactoferrin, 0.2% branched-chain amino acids, 0.1% CoQ10, and 0.1% high-methoxyl pectin (w/w). The zinc ion concentration after dilution became 2.4 mg/100 ml. This delivery system for CoQ10 was homogenized (72° C., 22.5 MPa), followed by pasteurization (72° C., 120 s). C. Unencapsulated (CoQ10). […] This mixture was homogenized (72° C., 22.5 MPa), followed by pasteurization (72° C., 120 s). […]"}, "[2]": {"assay": "Lutein photo-stability in delivery system at 21° C. under light 12 h daily, HPLC-PDA-MS/MS", "type": "physicochemical", "details": "UV and visible light 12 h daily at 21° C. over 8 weeks; dispersed in heat-stabilized lactoferrin matrix", "description": "A. Encapsulated-1 (Lutein). Primary Emulsion. […] This mixture was coarsely homogenized for 3 min using a hand blender. Secondary Emulsion.\n(§1) The primary and secondary emulsions were blended at 1:1 ratio. The final emulsion system contained 0.5% Menhaden oil/Smart Blend Omega oil, 0.1% heat-stabilized lactoferrin, 0.1% lutein, and 0.1% high-methoxyl pectin (w/w). The zinc ion concentration after dilution became 2.4 mg/100 ml. This delivery system for lutein was homogenized (72° C., 22.5 MPa), followed by pasteurization (72° C., 120 s).\nB. Encapsulated-2 (Lutein). Primary Emulsion. […] This mixture was coarsely homogenized for 3 min using a hand blender. Secondary Emulsion.\nas §1, with “lactoferrin, 0.2% branched-chain amino acids,” for “lactoferrin,”\nC. Unencapsulated (Lutein). […] This mixture was homogenized (72° C., 22.5 MPa), followed by pasteurization (72° C., 120 s).\nThe samples (500 ml each) were aseptically dispensed into clean, clear 600-ml bottles made from polyethylene terephthalate (PET). […]"}, "[3]": {"details": "O/W emulsion, menhaden oil/Smart Blend Omega oil 1:1 (0.5% w/w), entrapped within β-lactoglobulin microcarriers; 28 days of storage at 30° C."}}, "data": [{"compound": "COC1=C(OC)C(=O)C(C/C=C(\\C)CC/C=C(\\C)CC/C=C(\\C)CC/C=C(\\C)CC/C=C(\\C)CC/C=C(\\C)CC/C=C(\\C)CC/C=C(\\C)CC/C=C(\\C)CCC=C(C)C)=C(C)C1=O", "note": "[CoQ10, coenzyme Q10]", "values": [{"measurement": "degradation of CoQ10 during storage", "setting": "[1]", "value": "about 30%"}]}, {"compound": "CC1=C[C@H](O)CC(C)(C)[C@H]1/C=C/C(C)=C/C=C/C(C)=C/C=C/C=C(C)/C=C/C=C(C)/C=C/C1=C(C)C[C@@H](O)CC1(C)C", "note": "[lutein]", "values": [{"measurement": "light-sensitive degradation of xanthophyll carotenoid pigments (lutein)", "setting": "[2]", "value": "about 70%"}]}, {"compound": "docohexaenoic acid [DHA]", "values": [{"measurement": "percentage of retained ω-3 fatty acid", "setting": "[3]", "value": 79.5, "unit": "%"}]}]}
